Consider 5 compounds from patent publication US5885834A, “Antisense oligodeoxynucleotide against phosphodiesterase” (priority 1997, dated 1999).

Like-named read-outs stand apart in the source and are kept apart here. Some results are limits rather than exact numbers.

What all share (type): cell-based, human
For one assay, the system named is RPMI 8392 cells. In words: Apoptosis by endonuclease-digested DNA (DNA laddering) on agarose gels. As to conditions: Homo sapiens, read-out: Concentrations at which apoptosis was induced. As to the method:
The preferred method for testing the ability of AS ODN to induce apoptosis as determined by detection of endonuclease digested DNA on agarose gels employs the following sequence:
(2) Cells are grown to ≈10^6 /ml, collected by centrifugation for 5 min. at 300×g (1000 rpm in an IEC Model K centrifuge), resuspended in growth medium to 10^6 cells/ml, and placed in a 24 well tissue culture plate at 1 ml/well. The cell volumes are kept to a minimum (i.e., -1 ml), in order to reduce the amount of ODN needed. The fetal bovine serum used in the growth medium for this step is heat-inactivated at 65° C. for 1 hr. to minimize serum nuclease activity.
(4) Cells are then incubated for varying times, usually 1-3 days, following which the DNA is isolated.
The supernatant is aspirated down to ≈50 μl of volume and the cell pellet is resuspended in this remaining small volume.
(6) About 400 μl of cold cell lysis buffer (50 mM Tris-HCl, pH 7.5, 10 mM EDTA, 1% Triton X-100) is then added.
(9) The upper, aqueous phase is transferred to a fresh microfuge tube and 250 μl of phenol and 250 μl of chloroform are added, the mixture gently vortexed for 5 sec., and centrifuged at 16,650×g for 5 min.
(10) The upper, aqueous phase is again transferred to a fresh microfuge tube and 500 μl of chloroform is added, followed by gentle vortexing and centrifugation at 16,650×g for 3 min.
(11) The upper, aqueous phase is again transferred to a fresh microfuge tube, 3M sodium acetate (pH 5.2) is added to a final concentration of 0.3M, and 2.5 volumes of ice cold 100% ethanol is added. The solution is left overnight at -20° C. to precipitate the DNA.
(12) The DNA is collected by centrifugation at 16,650×g for 15 min., the supernatant decanted, and the pellet air dried for ≈30-60 min. at room temperature. The DNA pellet is then dissolved in 50 μl of pH 8.0 TE buffer at room temperature overnight.
(13) One μl of a 4 mg/ml solution of DNase-free RNase A is then added to the DNA and incubation is carried out at 37° C. for 30 min. This step is necessary to prevent contaminating RNA from obscuring the gel.
(14) Thirty μl of DNA solution is then mixed with 6 μl of 6× loading buffer and run on a 2% agarose gel, containing 0.5 μg/ml ethidium bromide, in 0.5× TBE buffer (45 mM Tris-borate, 1 mM EDTA, pH 8.0) at ≈50 V for ≈1.5 hr. The 6× loading buffer used is 0.25% xylene cyanol and 30% glycerol. The use of bromophenol blue is omitted for this analysis because it tends to obscure the visualization of the DNA ladder pattern.
(15) The gel is then visualized and photographed under UV light.
The effect of pharmacological inhibition of each of these PDE activities on induction of apoptosis in RPMI 8392 cells was tested, using the appearance of oligonucleosome length fragments of endonuclease digested DNA as a measure of apoptosis.
Markers (lane 1 in both gels) are 1 kb DNA ladder size markers from GIBCO/BRL.
Cells (10^6) were collected by centrifugation at 670×g for 5 min. The cell pellets were rinsed once with 0.2M dibasic sodium phosphate and lysed in 300 μl of lysis buffer (50 mM Tris/HCl pH 7.5, 10 mM EDTA, 1% V/V Triton X-100) for 20 min on ice. Proteinase K was added to 0.5 mg/ml and DNase-free RNase was added to 50 μg/ml and the extract incubated at 37° C. for 1 hr. DNA was then extracted in phenol/chloroform (1:1) and chloroform (1:1) and precipitated in 2.5 volumes of ethanol. The extracted DNA was electrophoresed on 2% agarose gels, the gels stained with 0.5 μg/ml ethidium bromide and photographed under UV light.
Experiments were conducted to determine if inhibition of the expression of the gene for PDE1B1 could induce apoptosis.

Another assay has as its system PDE4D3 mRNA in HPBL. As to the kind of experiment: RT-PCR amplification of transcripts in HPBL. Conditions: 10 μg/ml PHA-P, more prominent at 48 hr than 18 hr. On the procedure:
(§1) HPBL were purified from 30-60 ml of blood obtained from normal donors by defribrination with glass beads to remove platelets, incubated with tetracarbonyl iron to minimize monocyte contamination and centrifuged on Ficoll-Hypaque density gradients to achieve cell separation. […] For this stimulation, cells were placed in 25 cm^2 flasks in a total volume of 10 ml/flask.
(§2) First strand cDNA was synthesized from the RNA using a Superscript Preamplification System from GIBCO/BRL. […] To this was added 10 mM Tris/HCl pH 8.4, 50 mM KCl, 2.5 mM MgCl2, 10 mM DTT, 500 μM each of dGTP, dATP, dCTP and dTTP in a total volume of 20 μl, and the resultant mix was incubated at room temperature for 5 min. Superscript II reverse transcriptase (2 U) was then added and incubation continued at 42° C. for 50 min. at 70° C. for 15 min. RNase H (2 U) was then added and incubation carried out for 20 min. at 37° C. PCR amplification was carried out in a total volume of 50 μl using 2 μl of cDNA, 20 mM Tris/HCl pH 8.4, 50 mM KCl, 1.5 mM MgCl2, 200 μM each of dGTP, dATP, dCTP and dTTP and 0.4 μM of sense and antisense primers specific for different isogenes of human PDE4, human β-actin and human PDE1B1, as described hereinafter. The PCR reaction mixture was incubated at 94° C. for 5 min. followed by the addition of 0.5 μl Taq DNA polymerase (5 U/μl, GIBCO/BRL). PCR amplification was then carried out for 35 cycles at 94° C. for 1 min., 58° C. for 1 min., 72° C. for 1 min., followed by a final extension at 72° C. for 10 min., except where indicated otherwise. A sample of amplified DNA (10 μl) was resolved on a 1.5% agarose gel containing 0.5 μg/ml ethidium bromide and visualized and photographed under UV light. […] PCR amplification with primers specific for human β-actin were run for every cell sample, as positive controls to ensure that the isolated RNA was not degraded, and for normalization to verify that relatively equal amounts of RNA were used for the first strand cDNA synthesis reactions.
(§3) Primers specific for PDE4A, PDE4B, PDE4C, and PDE4D3 were synthesized. […] M37744; HSPDE4A4B (PDE-46), GenBank no. L20965; HSPDE4A4C (h6.1), GenBank no. U18087. […] U88712 and U88713.

Assay [1] relates to PDE4D1 and D2 mRNA in HPBL. As to the kind of experiment: RT-PCR amplification of transcripts in HPBL. As to conditions: 10 μg/ml PHA-P, 18 and 48 hr. As to the method: as §1, §2, §3
For the next assay, the system named is PDE4A mRNA in HPBL. In words: RT-PCR amplification of transcripts in HPBL. As to conditions: 10 μg/ml PHA-P, 18 and 48 hr. As to the method:
as §1, §2, §3

The next assay concerns PDE1B1 mRNA in HPBL. As to the kind of experiment: RT-PCR amplification of transcripts in HPBL. On the procedure:
as §1, §2, §3

The test system of another assay is isolated, quiescent HPBL. In words: TUNEL assay of apoptosis, flow cytometry, quiescent HPBL. Conditions: mitogen PHA added to HPBL in culture. The text has this:
Nevertheless, the effects of AS ODNs on HPBL can still be tested by quantifying and comparing the percentage of cells undergoing apoptosis in the presence and absence of the AS ODN. Apoptosis detected by examining endonuclease-digested DNA, commonly referred to as the DNA laddering technique, has been employed and the results therefrom are set forth in FIG. 5. However, we prefer to use a TUNEL assay, an acronym for terminal deoxynucleotidyl transferase (TdT)-mediated dUTP nick end labeling, which more readily allows quantitation of the percentage of cells undergoing apoptosis. The principle of the TUNEL assay is that endonuclease digestion during apoptosis results in the formation of 3'-OH ends in the digested DNA. The digested DNA in the apoptotic cells can then be labeled with fluorescein by catalytically incorporating fluorescein-12-dUTP at the 3'-OH ends using the TdT enzyme. Fluorescence can then be quantitated by flow cytometry, using a fluorescence activated cell sorter (FACS), which would give a measure of the number of cells undergoing apoptosis. An example of the appearance of a population of fluorescein labeled apoptotic cells, as evidenced by flow cytometry, following TUNEL assay labeling of the cells, is shown in FIGS. 6A-C. Cells were then cultured for 3 days with 10 μg/ml PHA-P (Sigma), in the absence of any ODN (FIG. 6A), in the presence of 30 μM NS ODN (FIG. 6B), or in the presence of 30 μM AS ODN (FIG. 6C). Cells were then collected by centrifugation and fluorescein labeled by the TUNEL assay using the Promega Apoptosis Detection System. Flow cytometry was performed on a Beckton Dickinson FACScan by the FACS facility.
The procedure for analyzing apoptosis by the TUNEL method uses either an In Situ Cell Death Kit, Fluorescein from Boehringer Mannheim or an Apoptosis Detection System, Fluorescein from Promega and follows the protocols of the manufacturers. The data in FIGS. 6 and 7 was obtained using the manufacturer's protocol for the Apoptosis Detection System, Fluorescein from Promega. […]
For orientation: In flow cytometry, cells or beads pass a laser one at a time.

In a further assay the test system is PDE4 mRNA in HPBL. As to the kind of experiment: RT-PCR amplification of transcripts in HPBL. As to the method:
as §1, §2, §3

Assay [2] has as its system PDE4B mRNA in RPMI 8392 cells. As to the kind of experiment: RT-PCR amplification of PDE4 subtype transcripts in RPMI 8392 cells. Conditions: agent alone.
In assay [3] the test system is PDE4D3 mRNA in RPMI 8392 cells. The description is as above. Conditions: agent alone.

Turning to `COc1ccc(C2CNC(=O)C2)cc1OC1CCCC1` (centres unmarked) [rolipram], the minimal effective concentration with RPMI 8392 cells (RPMI 8392 cells, culture for 24 hr) was at least 10 µM.
As to phytohemagglutinin [PHA], in the assay with PDE4D3 mRNA in HPBL, the “Expression of PDE4D3 mRNA” value is reported as “huge induction”. In addition, the “Expression of PDE4D1 and D2 mRNA” value in [1] is “some increase in the expression”. Further, the “Expression of PDE4A mRNA” value in the assay on PDE4A mRNA in HPBL is reported as “striking induction”. The “Expression of the mRNA for PDE1B1” value in the assay with PDE1B1 mRNA in HPBL (10 μg/ml PHA-P, 18 and 48 hr) was “readily apparent”. Also, the “PDE1B1 RT-PCR cDNA fragment (≈333 nt)” value with PDE1B1 mRNA in HPBL (PHA for 3 days) is listed as “show a cDNA fragment of the predicted size”. In addition, the “Spontaneous apoptosis of HPBL in culture (TUNEL)” value with isolated, quiescent HPBL is “prevented the HPBL from undergoing spontaneous apoptosis”.
With `CC(C)Cn1c(=O)n(C)c(=O)c2[nH]cnc21` [IBMX, 1-methyl-3-isobutylxanthine], the “PDE4 mRNA expression, compared with dbcAMP plus IBMX” value with PDE4 mRNA in HPBL (IBMX (0.1 mM) alone) was “same effects”. In [2], the “Expression of PDE4B mRNA, compared with dbcAMP plus IBMX” value is given as “reproduced”. In addition, in assay [3], the “Expression of PDE4D3 mRNA, compared with dbcAMP plus IBMX” value was “reproduced”.
Take `CCCCOc1cc(CC2CNC(=O)N2)ccc1OC` (centres unmarked) [RO 20-1724]: the minimal effective concentration in the assay with RPMI 8392 cells (24 h) was at least 10 µM.
Turning to `CCCC(=O)Nc1ncnc2c1ncn2[C@@H]1O[C@@H]2COP(=O)(O)O[C@H]2[C@H]1OC(=O)CCC` [dbcAMP, dibutyryl cAMP], the “PDE4 mRNA expression, compared with dbcAMP plus IBMX” value in the assay on PDE4 mRNA in HPBL (dbcAMP (1 mM) alone) is on record as “same effects”. For the same compound, the “Expression of PDE4B mRNA, compared with dbcAMP plus IBMX” value in assay [2] is recorded as “reproduced”. Besides, the “Expression of PDE4D3 mRNA, compared with dbcAMP plus IBMX” value in assay [3] is recorded as “reproduced”.
